Measurements reported in article PMC8632988, “Inhibition of SYK and cSrc kinases can protect bone and cartilage in preclinical models of osteoarthritis and rheumatoid arthritis” (Scientific Reports, 2021).
“And” between values parts separate entries of the source, which are not always exact repeats. Equal values may be shown once.

Experiments:
Lewis rats, CIA model = test: Collagen-induced semi-established arthritis model in rats; assay type: in vivo, rat
Experimental: Rat CIA model was performed was performed at Pharmenterprises, Russia and approved by Ethics Committee of Pharmenterprises. Female Lewis rats with body weight of 164–183 g (Charles River Laboratories, Inc., Wilmington, MA) were injected with porcine type II collagen (Chondrex) emulsified with Freund’s Incomplete Adjuvant (Sigma Aldrich) at two sites at the base of the tail according to standard protocol. On day 7, the rats were boosted with a second subcutaneous injection. On day 6 of the study, rats were randomized by body weight into six groups: a control group of four, and five treatment groups of eight. […] Disease progression was monitored via daily ankle thickness measurements. At study termination on day 16 rats were anesthetized with Isoflurane, bled by vacutainer through the descending aorta to exsanguinate and then euthanized for tissue collection. Hind paws were transected at the level of the medial and lateral malleolus, weighed, and collected for microscopy.
[…]

341 kinases = test: Kinase selectivity profile, whole panel; assay type: biochemical, human; conditions: 500 nM
Experimental: (§1) The activity of MT-SYK-03 against cSrc kinase and selectivity profile towards other 341 kinases was determined at Reaction Biology Corporation (Malvern, PA, USA) using the standard kinase assay protocol. […]; unbound phosphate was removed by extensive washing of filters in phosphoric acid. Kinase activity data was expressed as the percent remaining kinase activity in test samples compared to vehicle (dimethyl sulfoxide) reactions based on the radioactivity of reaction products (see Table S2). Experiment was replicated twice.

mongrel rats, AIA model = test: Adjuvant-induced arthritis in rats; assay type: in vivo
Experimental: Rat adjuvant-induced arthritis (AIA) model was performed at Pharmenterprises, Russia as described previously^3 and approved by Ethics Committee of Pharmenterprises. Male 10 week old mongrel rats were divided into eleven groups: negative control (#1), positive control (#2) and nine treatment groups (#3–11), ten […] in each group. Group #1 was left intact, while subplantar injection of 0.1 mL of Complete Freund’s adjuvant (CFA, Sigma) was made on day 0 at right paws of rats in groups […]. […] Disease progression was monitored by measuring volumes of the right (involved) and left (non-involved) paws on days 0, 14, 18, 21, 25, and 28.

PHKg2 = biological target: T1, PHKg2 (Homo sapiens, UniProt P15735); test: Kinase selectivity profile assay; assay type: biochemical; conditions: 500 nM; relative to DMSO; read-out: Residual enzymatic activity
T1 construct: purchased Reaction Biology Corporation
Experimental: as §1

PKCeta = biological target: T2, PKCeta (Homo sapiens, UniProt P24723); test: Kinase selectivity profile assay; assay type: biochemical; conditions: 500 nM; relative to DMSO; read-out: Residual enzymatic activity
T2 construct: purchased Reaction Biology Corporation
Experimental: as §1

PKCb1 = biological target: T3, PKCb1 (Homo sapiens, UniProt P05771); test: Kinase selectivity profile assay; assay type: biochemical; conditions: 500 nM; relative to DMSO; read-out: Residual enzymatic activity
T3 construct: purchased Reaction Biology Corporation
Experimental: as §1

c-Src = biological target: T4, c-Src (Homo sapiens, UniProt P12931); test: cSrc inhibition and kinase selectivity profile assay; assay type: biochemical
T4 construct: purchased Reaction Biology Corporation (assay service)
Experimental: as §1

DYRK4 = biological target: T5, DYRK4 (Homo sapiens, UniProt Q9NR20); test: Kinase selectivity profile assay; assay type: biochemical; conditions: 500 nM; relative to DMSO; read-out: Residual enzymatic activity
T5 construct: purchased Reaction Biology Corporation
Experimental: The activity of MT-SYK-03 against cSrc kinase and selectivity profile towards other 341 kinases was determined at Reaction Biology Corporation (Malvern, PA, USA) using the standard kinase assay protocol. […] Kinase activity data was expressed as the percent remaining kinase activity in test samples compared to vehicle (dimethyl sulfoxide) reactions based on the radioactivity of reaction products (see Table S2). Experiment was replicated twice.

[1] = knee, day 16, MT-SYK-03 207 mg/kg PO BID + MTX Veh PO QD, individual joint (animal, R/L), 207 mg/kg
[2] = knee, day 16, MT-SYK-03 207 mg/kg PO BID + MTX Veh PO QD, vs vehicle

T4 sequence (P12931 whole entry): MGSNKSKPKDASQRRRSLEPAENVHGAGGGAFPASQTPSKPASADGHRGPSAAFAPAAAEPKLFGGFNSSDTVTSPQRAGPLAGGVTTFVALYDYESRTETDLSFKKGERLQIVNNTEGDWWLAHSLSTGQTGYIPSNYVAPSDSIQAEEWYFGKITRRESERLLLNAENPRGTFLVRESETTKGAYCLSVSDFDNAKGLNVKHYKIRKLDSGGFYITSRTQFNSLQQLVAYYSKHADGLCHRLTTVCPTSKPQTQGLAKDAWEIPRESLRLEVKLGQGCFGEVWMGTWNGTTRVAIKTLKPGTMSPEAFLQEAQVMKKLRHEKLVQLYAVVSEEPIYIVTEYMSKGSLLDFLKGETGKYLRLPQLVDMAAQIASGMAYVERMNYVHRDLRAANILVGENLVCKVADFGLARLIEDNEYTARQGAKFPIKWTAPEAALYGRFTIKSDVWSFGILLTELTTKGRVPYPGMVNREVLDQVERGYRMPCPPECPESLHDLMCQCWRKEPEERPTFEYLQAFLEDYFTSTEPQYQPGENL
T1 sequence (P15735 whole entry): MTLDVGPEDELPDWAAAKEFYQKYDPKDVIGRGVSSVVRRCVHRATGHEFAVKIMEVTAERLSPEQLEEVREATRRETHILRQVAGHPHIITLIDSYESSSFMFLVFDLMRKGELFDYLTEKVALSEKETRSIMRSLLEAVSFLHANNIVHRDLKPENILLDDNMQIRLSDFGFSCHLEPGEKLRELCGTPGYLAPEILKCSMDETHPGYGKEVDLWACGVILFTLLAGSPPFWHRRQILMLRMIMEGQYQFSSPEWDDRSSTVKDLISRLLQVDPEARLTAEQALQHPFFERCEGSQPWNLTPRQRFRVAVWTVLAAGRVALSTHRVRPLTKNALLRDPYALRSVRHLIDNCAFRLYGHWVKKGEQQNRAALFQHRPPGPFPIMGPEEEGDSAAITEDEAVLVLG
T3 sequence (P05771 whole entry): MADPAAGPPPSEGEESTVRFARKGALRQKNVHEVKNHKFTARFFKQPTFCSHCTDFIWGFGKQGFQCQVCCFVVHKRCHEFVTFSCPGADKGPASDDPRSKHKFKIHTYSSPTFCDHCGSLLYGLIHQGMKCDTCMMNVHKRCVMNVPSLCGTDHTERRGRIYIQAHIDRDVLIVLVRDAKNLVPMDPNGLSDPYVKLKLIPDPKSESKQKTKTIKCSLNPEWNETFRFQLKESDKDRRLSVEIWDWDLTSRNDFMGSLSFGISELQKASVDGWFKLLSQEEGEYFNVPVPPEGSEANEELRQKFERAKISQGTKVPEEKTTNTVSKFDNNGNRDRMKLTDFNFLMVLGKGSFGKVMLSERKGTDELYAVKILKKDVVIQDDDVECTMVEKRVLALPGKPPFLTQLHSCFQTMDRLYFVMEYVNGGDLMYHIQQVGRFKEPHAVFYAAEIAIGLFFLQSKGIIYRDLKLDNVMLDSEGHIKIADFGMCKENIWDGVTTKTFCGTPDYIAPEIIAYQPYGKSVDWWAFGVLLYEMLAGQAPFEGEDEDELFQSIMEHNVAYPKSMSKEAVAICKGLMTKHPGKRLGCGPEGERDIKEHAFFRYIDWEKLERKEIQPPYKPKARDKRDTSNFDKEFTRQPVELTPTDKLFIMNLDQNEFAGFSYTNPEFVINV
T2 sequence (P24723 whole entry): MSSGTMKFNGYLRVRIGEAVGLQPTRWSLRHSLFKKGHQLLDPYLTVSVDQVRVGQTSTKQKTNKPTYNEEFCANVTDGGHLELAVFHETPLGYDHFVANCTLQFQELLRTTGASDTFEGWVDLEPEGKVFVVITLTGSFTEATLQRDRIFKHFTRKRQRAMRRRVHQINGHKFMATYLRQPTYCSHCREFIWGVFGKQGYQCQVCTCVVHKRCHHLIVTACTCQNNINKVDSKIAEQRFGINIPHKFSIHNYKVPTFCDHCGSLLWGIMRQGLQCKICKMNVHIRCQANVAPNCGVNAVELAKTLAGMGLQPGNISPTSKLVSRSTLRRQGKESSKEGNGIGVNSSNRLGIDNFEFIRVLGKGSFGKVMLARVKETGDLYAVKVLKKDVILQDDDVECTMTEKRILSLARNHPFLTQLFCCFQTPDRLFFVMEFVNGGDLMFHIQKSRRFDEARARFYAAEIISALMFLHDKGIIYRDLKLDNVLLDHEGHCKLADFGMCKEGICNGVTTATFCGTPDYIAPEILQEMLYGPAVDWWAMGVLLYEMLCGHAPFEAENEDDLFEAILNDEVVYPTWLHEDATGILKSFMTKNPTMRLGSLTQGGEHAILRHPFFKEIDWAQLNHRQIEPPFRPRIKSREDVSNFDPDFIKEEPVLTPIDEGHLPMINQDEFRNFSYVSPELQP
T5 sequence (Q9NR20 whole entry): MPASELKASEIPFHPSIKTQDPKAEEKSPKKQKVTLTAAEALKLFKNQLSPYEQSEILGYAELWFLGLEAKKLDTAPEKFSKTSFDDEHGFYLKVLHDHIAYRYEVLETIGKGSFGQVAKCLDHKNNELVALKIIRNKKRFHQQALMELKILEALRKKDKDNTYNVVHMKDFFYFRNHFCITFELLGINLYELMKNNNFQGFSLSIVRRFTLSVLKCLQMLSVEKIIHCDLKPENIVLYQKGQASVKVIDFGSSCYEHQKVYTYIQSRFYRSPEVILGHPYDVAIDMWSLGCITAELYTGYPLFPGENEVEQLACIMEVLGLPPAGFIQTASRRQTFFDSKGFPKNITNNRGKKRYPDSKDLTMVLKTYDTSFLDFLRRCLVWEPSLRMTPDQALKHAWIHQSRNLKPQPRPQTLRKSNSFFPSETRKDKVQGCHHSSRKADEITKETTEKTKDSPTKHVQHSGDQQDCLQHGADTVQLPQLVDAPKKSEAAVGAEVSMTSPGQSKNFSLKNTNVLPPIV

SMILES: COc1cc(Nc2ncnc(Nc3cc4c(cn3)NC(=O)C(C)(C)O4)n2)cc(OC)c1OC [MT-SYK-03]
- Inflammation score (0=normal to 5=severe) (Lewis rats, CIA model; [1]): 4 and 1 and 0 and 2 and 3 and 0.5
- Pannus score (0=normal to 5=severe) (Lewis rats, CIA model; [1]): 0.5 and 1 and 0
- Summed Histopathology Scores (Lewis rats, CIA model; [1]): 6 and 7 and 2.5 and 0 and 3 and 4.5 and 2 and 5 and 5.5 and 3.5 and 0.5
- Bone Resorption score, ANOVA to Vehicle (Lewis rats, CIA model; knee, day 16, MT-SYK-03 207 mg/kg PO BID + MTX Veh PO QD, p value): p < 0.05
- Bone Resorption score, % inhibition (Lewis rats, CIA model; [2]): 78%
- Cartilage Damage score, % inhibition (Lewis rats, CIA model; [2]): 57%
- Inflammation score, % inhibition (Lewis rats, CIA model; [2]): 50%
- Pannus score, % inhibition (Lewis rats, CIA model; [2]): 46%
- Summed Histopathology Scores, % inhibition (Lewis rats, CIA model; [2]): 56%
- Histopathology scores for cartilage damage and bone resorption, ankles and knees (Lewis rats, CIA model; rat CIA, day 16): chondroprotective and antiresorptive effects
- Histopathology scores of inflammation and pannus formation (Lewis rats, CIA model; rat CIA, day 16): smaller
- Relative weights of thymus, liver and spleen (Lewis rats, CIA model; rat CIA, day 16): statistically identical across all groups
- Number of kinases inhibited by more than 50% (341 kinases): 34 kinases
- Number of kinases inhibited by more than 80% (341 kinases): 13 kinases
- Number of kinases inhibited by more than 90% (341 kinases): five
- Animal death (mongrel rats, AIA model; MT-SYK-03 52 mg/kg BID intragastric, 14 days): 0%
- Animal death (mongrel rats, AIA model; MT-SYK-03 52 mg/kg BID intragastric, 18 days): 0%
- Animal death (mongrel rats, AIA model; MT-SYK-03 52 mg/kg BID intragastric, 21 days): 0%
- Animal death (mongrel rats, AIA model; MT-SYK-03 52 mg/kg BID intragastric, 25 days): 0%
- Animal death (mongrel rats, AIA model; MT-SYK-03 52 mg/kg BID intragastric, 28 days): 0%
- Animal death (mongrel rats, AIA model; MT-SYK-03 103 mg/kg BID intragastric, 14 days): 0%
- Animal death (mongrel rats, AIA model; MT-SYK-03 103 mg/kg BID intragastric, 18 days): 0%
- Animal death (mongrel rats, AIA model; MT-SYK-03 103 mg/kg BID intragastric, 21 days): 0%
- Animal death (mongrel rats, AIA model; MT-SYK-03 103 mg/kg BID intragastric, 25 days): 0%
- Animal death (mongrel rats, AIA model; MT-SYK-03 103 mg/kg BID intragastric, 28 days): 0%
- Animal death (mongrel rats, AIA model; MT-SYK-03 207 mg/kg QD intragastric, 14 days): 0%
- Animal death (mongrel rats, AIA model; MT-SYK-03 207 mg/kg QD intragastric, 18 days): 0%
- Animal death (mongrel rats, AIA model; MT-SYK-03 207 mg/kg QD intragastric, 21 days): 0%
- Animal death (mongrel rats, AIA model; MT-SYK-03 207 mg/kg QD intragastric, 25 days): 0%
- Animal death (mongrel rats, AIA model; MT-SYK-03 207 mg/kg QD intragastric, 28 days): 0%
- The increase in the volume of the paws relative to the initial level (mongrel rats, AIA model; non-involved paws, MT-SYK-03 52 mg/kg BID intragastric, 18 days): 22.55±2.93& %
- The increase in the volume of the paws relative to the initial level (mongrel rats, AIA model; non-involved paws, MT-SYK-03 52 mg/kg BID intragastric, 21 days): 23.66±3.25& %
- The increase in the volume of the paws relative to the initial level (mongrel rats, AIA model; non-involved paws, MT-SYK-03 52 mg/kg BID intragastric, 25 days): 24.39±2.8& %
- The increase in the volume of the paws relative to the initial level (mongrel rats, AIA model; non-involved paws, MT-SYK-03 52 mg/kg BID intragastric, 28 days): 25.25±2.86& %
- The increase in the volume of the paws relative to the initial level (mongrel rats, AIA model; non-involved paws, MT-SYK-03 103 mg/kg BID intragastric, 14 days): 11.22±1.26& %
- The increase in the volume of the paws relative to the initial level (mongrel rats, AIA model; non-involved paws, MT-SYK-03 103 mg/kg BID intragastric, 18 days): 17.42±1.16& %
- The increase in the volume of the paws relative to the initial level (mongrel rats, AIA model; non-involved paws, MT-SYK-03 103 mg/kg BID intragastric, 21 days): 20.38±2.11& %
- The increase in the volume of the paws relative to the initial level (mongrel rats, AIA model; non-involved paws, MT-SYK-03 103 mg/kg BID intragastric, 25 days): 22.35±2.28& %
- The increase in the volume of the paws relative to the initial level (mongrel rats, AIA model; non-involved paws, MT-SYK-03 103 mg/kg BID intragastric, 28 days): 21.41±2.05&# %
- The increase in the volume of the paws relative to the initial level (mongrel rats, AIA model; non-involved paws, MT-SYK-03 207 mg/kg QD intragastric, 14 days): 14.3±1.82& %
- The increase in the volume of the paws relative to the initial level (mongrel rats, AIA model; non-involved paws, MT-SYK-03 207 mg/kg QD intragastric, 18 days): 19.97±1.89& %
- The increase in the volume of the paws relative to the initial level (mongrel rats, AIA model; non-involved paws, MT-SYK-03 207 mg/kg QD intragastric, 21 days): 21.15±1.89& %
- The increase in the volume of the paws relative to the initial level (mongrel rats, AIA model; non-involved paws, MT-SYK-03 207 mg/kg QD intragastric, 25 days): 22.51±1.61& %
- The increase in the volume of the paws relative to the initial level (mongrel rats, AIA model; non-involved paws, MT-SYK-03 207 mg/kg QD intragastric, 28 days): 21.94±1.37&# %
- The increase in the volume of the paws relative to the initial level (mongrel rats, AIA model; po, 52 mg/kg, 336 h): 13.93±1.83& %
- Rats died (mongrel rats, AIA model; rat AIA, MT-SYK-03): 0%
- Volume of non-involved paws (mongrel rats, AIA model; rat AIA, MT-SYK-03 103 and 207 mg/kg, day 28): decreased the volume of non-involved paws
- The increase in the volume of the paws relative to the initial level (mongrel rats, AIA model; treated paws, MT-SYK-03 52 mg/kg BID intragastric, 14 days): 77.6 ± 4.53 & %
- The increase in the volume of the paws relative to the initial level (mongrel rats, AIA model; treated paws, MT-SYK-03 52 mg/kg BID intragastric, 18 days): 85.72 ± 3.7 & %
- The increase in the volume of the paws relative to the initial level (mongrel rats, AIA model; treated paws, MT-SYK-03 52 mg/kg BID intragastric, 21 days): 88.24 ± 4.4 & %
- The increase in the volume of the paws relative to the initial level (mongrel rats, AIA model; treated paws, MT-SYK-03 52 mg/kg BID intragastric, 25 days): 94.75 ± 7.18 & %
- The increase in the volume of the paws relative to the initial level (mongrel rats, AIA model; treated paws, MT-SYK-03 52 mg/kg BID intragastric, 28 days): 93.88 ± 6.77 & %
- The increase in the volume of the paws relative to the initial level (mongrel rats, AIA model; treated paws, MT-SYK-03 103 mg/kg BID intragastric, 14 days): 76.18 ± 7.73 & %
- The increase in the volume of the paws relative to the initial level (mongrel rats, AIA model; treated paws, MT-SYK-03 103 mg/kg BID intragastric, 18 days): 85.98 ± 7.51 & %
- The increase in the volume of the paws relative to the initial level (mongrel rats, AIA model; treated paws, MT-SYK-03 103 mg/kg BID intragastric, 21 days): 86.55 ± 8.13 & %
- The increase in the volume of the paws relative to the initial level (mongrel rats, AIA model; treated paws, MT-SYK-03 103 mg/kg BID intragastric, 25 days): 86.47 ± 7.89 & %
- The increase in the volume of the paws relative to the initial level (mongrel rats, AIA model; treated paws, MT-SYK-03 103 mg/kg BID intragastric, 28 days): 89.02 ± 7.37 & %
- The increase in the volume of the paws relative to the initial level (mongrel rats, AIA model; treated paws, MT-SYK-03 207 mg/kg QD intragastric, 14 days): 81.54 ± 6.88 & %
- The increase in the volume of the paws relative to the initial level (mongrel rats, AIA model; treated paws, MT-SYK-03 207 mg/kg QD intragastric, 18 days): 82.92 ± 6.64 & %
- The increase in the volume of the paws relative to the initial level (mongrel rats, AIA model; treated paws, MT-SYK-03 207 mg/kg QD intragastric, 21 days): 83.22 ± 6.53 & %
- The increase in the volume of the paws relative to the initial level (mongrel rats, AIA model; treated paws, MT-SYK-03 207 mg/kg QD intragastric, 25 days): 88.58 ± 7.8 & %
- The increase in the volume of the paws relative to the initial level (mongrel rats, AIA model; treated paws, MT-SYK-03 207 mg/kg QD intragastric, 28 days): 93.67 ± 9.08 & %
- remaining activity at 0.5 µM (PHKg2): 102%
- remaining activity at 0.5 µM (PKCeta): 109%
- remaining activity at 0.5 µM (PKCb1): 104%
- IC50 (c-Src): 14.2 nM and 23 to 40 nM and 14 nM
- remaining activity at 0.5 µM (c-Src; 500 nM, relative to DMSO, read-out: Residual enzymatic activity): 6.2%
- remaining activity at 0.5 µM (DYRK4): 104%
